According to patent US20210122763A1, “OGA INHIBITOR COMPOUNDS” (Janssen Pharmaceutica NV, priority 2018, published 2021):

Assays:
[1] = target: T1, recombinant human Meningioma Expressed Antigen 5 (MGEA5), also referred to as O-GlcNAcase (OGA) (Homo sapiens, UniProt O60502); test: OGA biochemical assay (inhibition of FM-GlcNAc hydrolysis, fluorescence); settings: for IC50: read-out: Enzymatic hOGA, pIC50 (converted); for Emax: read-out: Enzymatic Emax (%)
T1 construct: Full length OGA enzyme was purchased at OriGene (cat #TP322411); purchased OriGene TP322411
T1 sequence (O60502 1-916): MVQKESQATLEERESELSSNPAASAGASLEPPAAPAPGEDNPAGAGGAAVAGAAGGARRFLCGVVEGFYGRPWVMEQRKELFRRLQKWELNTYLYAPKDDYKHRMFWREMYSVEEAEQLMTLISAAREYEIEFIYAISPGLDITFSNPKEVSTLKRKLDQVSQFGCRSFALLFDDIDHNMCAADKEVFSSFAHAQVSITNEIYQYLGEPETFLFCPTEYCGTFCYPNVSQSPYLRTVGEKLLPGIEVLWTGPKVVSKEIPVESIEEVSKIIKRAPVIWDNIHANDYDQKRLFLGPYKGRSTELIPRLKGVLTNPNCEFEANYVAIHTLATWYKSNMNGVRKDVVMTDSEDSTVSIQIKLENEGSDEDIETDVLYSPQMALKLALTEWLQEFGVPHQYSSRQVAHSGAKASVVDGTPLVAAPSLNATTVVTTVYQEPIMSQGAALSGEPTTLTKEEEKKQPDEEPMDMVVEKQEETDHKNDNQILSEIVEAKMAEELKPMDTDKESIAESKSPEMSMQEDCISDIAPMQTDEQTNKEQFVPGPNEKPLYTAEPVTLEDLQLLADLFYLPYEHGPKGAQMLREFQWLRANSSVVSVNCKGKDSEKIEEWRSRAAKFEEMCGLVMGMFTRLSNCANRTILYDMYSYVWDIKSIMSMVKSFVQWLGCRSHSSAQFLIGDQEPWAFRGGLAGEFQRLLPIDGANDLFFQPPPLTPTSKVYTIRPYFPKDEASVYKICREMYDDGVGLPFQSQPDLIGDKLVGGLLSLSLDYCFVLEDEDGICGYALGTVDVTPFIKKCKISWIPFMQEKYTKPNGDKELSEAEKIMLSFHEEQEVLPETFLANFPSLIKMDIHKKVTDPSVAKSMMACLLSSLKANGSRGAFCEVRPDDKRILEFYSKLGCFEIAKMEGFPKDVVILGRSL
Excerpt: The assay is based on the inhibition of the hydrolysis of fluorescein mono-B-D-N-Acetyl-Glucosamine (FM-GcNAc) (Mariappa et al. 2015, Biochem J470:255) by the recombinant human Meningioma Expressed Antigen 5 (MGEA5), also referred to as O-GlcNAcase (OGA). The hydrolysis FM-GlcNAc (Marker Gene technologies, cat #M1485) results in the formation of B-D-N-glucosamineacetate and fluorescein. The fluorescence of the latter can be measured at excitation wavelength 485 nm and emission wavelength 538 nm. An increase in enzyme activity results in anincrease in fluorescence signal. Full length OGA enzyme was purchased at OriGene (cat #TP322411). The enzyme was stored in 25 mM Tris.HCl, pH 7.3, 100 mM glycine, 10% glycerol at −20° C. Thiamet G and GlcNAcStatin were tested as reference compounds (Yuzwa et al. 2008 Nature Chemical Biology 4:483; Yuzwa et al. 2012 Nature Chemical Biology 8:393). The assay was performed in 200 mM Citrate/phosphate buffer supplemented with 0.005% Tween-20. 35.6 g Na2HPO4 2H2O (Sigma, #C0759) were dissolved in 1 L water to obtain a 200 mM solution. 19.2 g citric acid (Merck, #1.06580) was dissolved in 1 L water to obtain a 100 mM solution. pH of the sodiumphosphate solution was adjusted with the citric acid solution to 7.2. The buffer to stop the reaction consists of a 500 mM Carbonate buffer, pH 11.0. 734 mg FM-GlcNAc were dissolved in 5.48 mL DMSO to obtain a 250 mM solution and was stored at −20° C. OGA was used at a 2 nM concentration and FM-GcNAc at a 100 uM final concentration. Dilutions were prepared in assay buffer.
50 nl of a compound dissolved in DMSO was dispensed on Black Proxiplate™ 384 Plus Assay plates (Perkin Elmer, #6008269) and 3 μl fl-OGA enzyme mix added subsequently. Plates were pre-incubated for 60 min at room temperature and then 2 μl FM-GlcNAc substrate mix added.
Plates were briefly centrifuged for 1 min at 1000 rpm and incubate at room temperature for 6 h. To stop the reaction 5 μl STOP buffer were added and plates centrifuge again 1 min at 1000 rpm. Fluorescence was quantified in the Thermo Scientific Fluoroskan Ascent or the PerkinElmer EnVision with excitation wavelength 485 nm and emission wavelength 538 nm.
For analysis a best-fit curve is fitted by a minimum sum of squares method. From this an IC50 value and Hill coefficient was obtained. High control (no inhibitor) and low control (saturating concentrations of standard inhibitor) were used to define the minimum and maximum values.

[2] = target: T2, OGA (Homo sapiens, UniProt O60502); test: OGA cellular assay (ICC detection of O-GlcNAcylated proteins in HEK293 cells inducible for P301L mutant human Tau); assay type: cell-based; settings: 6 hours incubation; for Cellular Emax (%) / EC50: HEK293 cells inducible for P301L mutant human Tau; for Cellular Emax (%) / Emax: maximum = Thiamet G 200 uM; for EC50: read-out: Cellular hOGA, pEC50 (converted); for Emax: HEK293, HEK293 cells inducible for P301L mutant human Tau
T2 construct: HEK293 cells inducible for P301L mutant human Tau (isoform 2N4R) were established at Janssen; endogenous in cells; host or cells: HEK293 cells inducible for P301L mutant human Tau (2N4R)
T2 sequence (O60502 1-916): T1 sequence (O60502 1-916)
Description: HEK293 cells inducible for P301L mutant human Tau (isoform 2N4R) were established at Janssen. Thiamet-G was used for both plate validation (high control) and as reference compound (reference EC50 assay validation). OGA inhibition is evaluated through the immunocytochemical (ICC) detection of O-GlcNAcylated proteins by the use of a monoclonal antibody (CTD110.6; Cell Signaling, #9875) detecting 0-GlcNAcylated residues as previously described (Dorfmueller et al. 2010 Chemistry & biology, 17:1250). Inhibition of OGA will result in an increase of 0-GlcNAcylated protein levels resulting in an increased signal in the experiment. Cell nuclei are stained with Hoechst to give a cell culture quality control and a rough estimate of immediate compounds toxicity, if any. ICC pictures are imaged with a Perkin Elmer Opera Phenix plate microscope and quantified with the provided software Perkin Elmer Harmony 4.1.
Cells were propagated in DMEM high Glucose (Sigma, #D5796) following standard procedures. 2 days before the cell assay cells are split, counted and seeded in Poly-D-Lysine (PDL) coated 96-wells (Greiner, #655946) plate at a cell density of 12,000 cells per cm^2 (4,000 cells per well) in 100p of Assay Medium (Low Glucose medium is used to reduce basal levels of GlcNAcylation) (Park et al. 2014 The Journal of biological chemistry 289:13519). At the day of compound test medium from assay plates was removed and replenished with 90 μl of fresh Assay Medium. 10 μl of compounds at a 10 fold final concentration were added to the wells. Plates were centrifuged shortly before incubation in the cell incubator for 6 hours. DMSO concentration was set to 0.2%. Medium is discarded by applying vacuum. For staining of cells medium was removed and cells washed once with 100 μl D-PBS (Sigma, #D8537). From next step onwards unless other stated assay volume was always 50p and incubation was performed without agitation and at room temperature. Cells were fixed in 50 μl of a 4% paraformaldehyde (PFA, Alpha aesar, #043368) PBS solution for 15 minutes at room temperature. […] Before analysis samples were washed 2 times manually for 5 minutes in ICC base buffer.
Imaging is performed using Perkin Elmer Phenix Opera using a water 20× objective and recording 9 fields per well. Intensity readout at 488 nm is used as a measure of O-GlcNAcylation level of total proteins in wells. To assess potential toxicity of compounds nuclei were counted using the Hoechst staining. IC50-values are calculated using parametric non-linear regression model fitting. As a maximum inhibition Thiamet G at a 200 uM concentration is present on each plate. In addition, a concentration response of Thiamet G is calculated on each plate.

| SMILES | Enzymatic Emax (%) [1] | IC50 [1] | Cellular Emax (%) [2] | EC50 [2] | Emax [1] | Emax [2] |
| --- | --- | --- | --- | --- | --- | --- |
| Cc1cc(OC2CCN(C(C)c3ccc4c(n3)OCCO4)CC2)cc(C)n1 (single isomer, unassigned) [Compound 2] | 29% | > 10000 nM | −14% | > 1000 nM | – | – |
| Cc1cc(OC2CCN(C(C)c3ccc4c(n3)OCCO4)CC2)nc(C)n1 (single isomer, unassigned) [Compound 11] | 84% | 2510 nM | – | – | – | – |
| COc1cc(OC2CCN(C(C)c3ccc4c(n3)OCCO4)CC2)cc(C)n1 (single isomer, unassigned) [Compound 53] | 55% | 7940 nM | −8% | > 1000 nM | – | – |
| COc1cc(OC2CCN(C(C)c3ccc4c(n3)OCCO4)CC2)cc(C)n1 (single isomer, unassigned) [Compound 54] | 100% | 12.6 nM | 83% | 126 nM | – | – |
| Cc1cc(OC2CCN([C@H](C)c3nc4c(cc3F)OCCO4)CC2)nc(C)n1 (single isomer, unassigned) [Compound 55] | – | 200 nM | – | > 1000 nM | 97% | 14% |
| Cc1cc(OC2CCN([C@@H](C)c3ccc4c(n3)OCC4)CC2)cc(C)n1 (single isomer, unassigned) [Compound 62] | – | 1000 nM | – | > 1000 nM | 90% | 6% |
| COc1cc(OC2CCN([C@H](C)c3nc4nc(C)sc4cc3F)CC2)cc(C)n1 (single isomer, unassigned) [Compound 80] | – | 631 nM | – | > 1000 nM | 96% | 7% |
| COc1cc(OC2CCN([C@@H](C)c3nc4nc(C)sc4cc3F)CC2)cc(C)n1 (single isomer, unassigned) [Compound 81] | – | 1.58 nM | – | 31.6 nM | 93% | 87% |
| C[C@H](c1nc2c(cc1F)OCCO2)N1CCC(Oc2ccc(C#N)nn2)CC1 (single isomer, unassigned) [Compound 85] | – | > 10000 nM | – | > 1000 nM | -11% | -3% |
| C[C@@H](c1nc2c(cc1F)OCCO2)N1CCC(Oc2ccc(C#N)nn2)CC1 (single isomer, unassigned) [Compound 86] | – | 15.8 nM | – | 100 nM | 94% | 100% |
| Cc1cc(OC2CCN(C(C)c3ccc4c(n3)OCCO4)CC2)nc(C)n1 (centres unmarked) [Compound 9] | – | 100 nM | – | – | 102% | – |

Continued, values first:

| Enzymatic Emax (%) [1] | IC50 [1] | Cellular Emax (%) [2] | EC50 [2] | Emax [1] | Emax [2] | SMILES |
| --- | --- | --- | --- | --- | --- | --- |
| 103% | 50.1 nM | 83% | 251 nM | – | – | Cc1cc(OC2CCN(C(C)c3ccc4c(n3)OCCO4)CC2)cc(C)n1 (single isomer, unassigned) [Compound 3] |
| – | 50.1 nM | – | 631 nM | 100% | 73% | Cc1cc(OC2CCN(C(C)c3ccc4c(n3)OCCO4)CC2)nc(C)n1 (single isomer, unassigned) [Compound 10] |
| 59% | 3980 nM | −8% | > 1000 nM | – | – | COc1cc(OC2CCN(C(C)c3ccc4sc(C)nc4n3)CC2)cc(C)n1 (single isomer, unassigned) [Compound 23] |
| 98% | 20 nM | 72% | 100 nM | – | – | COc1cc(OC2CCN(C(C)c3ccc4sc(C)nc4n3)CC2)cc(C)n1 (single isomer, unassigned) [Compound 24] |
| – | 15.8 nM | – | 79.4 nM | 95% | 87% | Cc1cc(OC2CCN([C@H](C)c3ccc4c(n3)OCC4)CC2)cc(C)n1 (single isomer, unassigned) [Compound 61] |
| – | 631 nM | – | > 1000 nM | 97% | 18% | Cc1cc(OC2CCN([C@H](C)c3nc4nc(C)sc4cc3F)CC2)cc(C)n1 (single isomer, unassigned) [Compound 82] |
| – | 126 nM | – | 631 nM | 95% | 48% | C[C@@H](c1ccc2c(n1)OCCO2)N1CCC(Oc2ccc(C(N)=O)nn2)CC1 (single isomer, unassigned) [Compound 106] |
| – | 1580 nM | – | > 1000 nM | 86% | 8% | Cc1cc(OC2CCN([C@@H](C)c3nc4c(cc3F)CCO4)CC2)cc(C)n1 (single isomer, unassigned) [Compound 145] |
| – | 63.1 nM | – | – | 101% | – | Cc1cc(OC2CCN(C(C)c3ccc4c(n3)OCCO4)CC2)cc(C)n1 (centres unmarked) [Compound 1] |
